Test results taken from the supplement of paper PMC10307832.

How the values were obtained:
Experiment in all cases: relative viability (nuclei count vs DMSO), 5 days (fraction); higher = more cells survive
Selisistat + AZD7762 = compound: C1CC(C2=C(C1)C3=C(N2)C=CC(=C3)Cl)C(=O)N [Selisistat] + NC(=O)Nc1cc(-c2cccc(F)c2)sc1C(=O)N[C@H]1CCCNC1 [AZD7762] (partner 0.2 µM)
Summary of the method: (§1)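 Relative viability divides the nuclei count in treated wells by that in vehicle wells. Lung cancer cell lines were seeded in 1536-well plates, dosed by pin tool the next day, and fixed and stained after 5 days in one step with final 0.05% Triton X-100, 1% formaldehyde and 1 ug/ml Hoechst. Dosing was a single drug or a fixed anchor-drug dose plus five library-drug doses (not always all listed) in √10 steps, and values are medians of duplicate plates imaged at 4×.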

Selisistat + Luminespib = compound: C1CC(C2=C(C1)C3=C(N2)C=CC(=C3)Cl)C(=O)N [Selisistat] + CCNC(=O)c1noc(-c2cc(C(C)C)c(O)cc2O)c1-c1ccc(CN2CCOCC2)cc1 [Luminespib] (partner 0.01 µM)
Summary of the method: as §1

Serdemetan + Palbociclib = compound: c1ccc2c(CCNc3ccc(Nc4ccncc4)cc3)c[nH]c2c1 [Serdemetan] + CC(=O)c1c(C)c2cnc(Nc3ccc(N4CCNCC4)cn3)nc2n(C2CCCC2)c1=O [Palbociclib] (partner 0.5 µM)
Summary of the method: as §1

Selisistat + Palbociclib = compound: C1CC(C2=C(C1)C3=C(N2)C=CC(=C3)Cl)C(=O)N [Selisistat] + CC(=O)c1c(C)c2cnc(Nc3ccc(N4CCNCC4)cn3)nc2n(C2CCCC2)c1=O [Palbociclib] (partner 0.5 µM)
Summary of the method: as §1

Cell Line | relative viability (Selisistat + AZD7762; first compound 0.4 µM) | relative viability (Selisistat + AZD7762; first compound 1.265 µM) | relative viability (Selisistat + AZD7762; first compound 4 µM) | relative viability (Selisistat + AZD7762; first compound 12.65 µM) | relative viability (Selisistat + AZD7762; first compound 40 µM) | relative viability (Selisistat + Luminespib; first compound 0.4 µM) | relative viability (Selisistat + Luminespib; first compound 1.265 µM) | relative viability (Selisistat + Luminespib; first compound 12.65 µM) | relative viability (Selisistat + Luminespib; first compound 40 µM) | relative viability (Serdemetan + Palbociclib; first compound 0.04 µM) | relative viability (Serdemetan + Palbociclib; first compound 0.1265 µM) | relative viability (Serdemetan + Palbociclib; first compound 1.265 µM) | relative viability (Serdemetan + Palbociclib; first compound 4 µM) | relative viability (Selisistat + Palbociclib; first compound 0.4 µM) | relative viability (Selisistat + Palbociclib; first compound 1.265 µM) | relative viability (Selisistat + Palbociclib; first compound 4 µM) | relative viability (Selisistat + Palbociclib; first compound 12.65 µM) | relative viability (Selisistat + Palbociclib; first compound 40 µM) | relative viability (Selisistat + Luminespib; first compound 4 µM) | relative viability (Serdemetan + Palbociclib; first compound 0.4 µM)
PC-14 | 0.381 | 0.344 | 0.226 | 0.278 | 0.36 | 0.141 | 0.151 | 0.221 | 0.311 | 0.546 | 0.546 | 0.467 | 0.346 | 0.513 | 0.498 | 0.528 | 0.53 | 0.489 | – | –
NCI-H1651 | 0.426 | 0.491 | 0.462 | 0.521 | 0.523 | 1.06 | 0.827 | 0.848 | 0.802 | 0.51 | 0.499 | 0.358 | 0.29 | 0.508 | 0.532 | 0.499 | 0.474 | 0.517 | 0.836 | 0.523
HARA | 0.237 | 0.342 | – | 0.364 | 0.219 | 0.909 | 1.02 | 0.584 | 1.04 | 0.269 | 0.264 | 0.236 | 0.223 | 0.295 | 0.242 | 0.241 | 0.275 | 0.251 | 0.846 | 0.228
NCI-H1395 | 0.377 | 0.393 | – | 0.394 | 0.4 | 0.871 | 0.682 | 0.66 | 0.455 | 0.605 | 0.643 | 0.555 | 0.436 | 0.579 | 0.664 | – | 0.6 | 0.55 | 0.702 | 0.626
LU99A | 0.372 | 0.256 | 0.392 | 0.436 | 0.338 | 0.258 | 0.214 | 0.291 | 0.223 | 0.431 | 0.371 | 0.203 | 0.22 | 0.459 | 0.367 | 0.44 | 0.445 | 0.399 | 0.301 | 0.308
NCI-H1355 | 0.774 | 0.753 | 0.717 | 0.819 | 0.814 | 0.739 | 0.834 | 0.683 | 0.774 | 0.381 | 0.381 | 0.371 | 0.366 | 0.432 | 0.401 | 0.389 | 0.438 | 0.437 | 0.596 | 0.366
HCC-15 | 1.34 | 1.23 | 1.16 | 1.3 | 1.55 | 0.329 | 0.205 | 0.373 | 0.319 | 0.697 | 0.757 | 0.56 | 0.556 | 0.755 | 0.854 | 0.586 | 0.748 | 0.885 | – | 0.668
EKVX | 0.682 | 0.732 | 0.705 | 0.699 | 0.802 | 0.844 | 0.894 | 0.934 | 0.877 | 0.456 | 0.374 | – | 0.282 | 0.364 | 0.351 | 0.329 | 0.376 | 0.353 | 0.814 | –
NCI-H2087 | 1.31 | 1.14 | – | 1.19 | 1.25 | 0.157 | 0.139 | 0.147 | 0.158 | 0.28 | 0.255 | 0.147 | 0.215 | 0.224 | 0.278 | – | 0.261 | 0.287 | – | 0.236
LK-2 | 0.434 | 0.265 | 0.323 | 0.296 | 0.434 | 0.193 | 0.161 | 0.198 | 0.188 | 0.69 | 0.704 | 0.517 | 0.496 | 0.797 | 0.686 | 0.766 | 0.694 | 0.566 | 0.182 | 0.778
NCI-H1437 | 1.17 | 1.12 | 0.918 | 0.99 | 1.01 | 1.1 | 1.12 | 1.1 | 0.922 | 0.289 | 0.32 | 0.359 | 0.315 | 0.325 | 0.282 | 0.227 | 0.213 | 0.242 | 1.09 | 0.334
ABC-1 | 0.791 | 0.778 | – | 0.829 | 1.08 | 0.477 | 0.483 | – | 0.627 | 0.553 | 0.586 | 0.611 | 0.459 | 0.713 | 0.695 | – | 0.563 | 0.735 | – | 0.694
SW 900 | 0.533 | 0.529 | 0.681 | 0.601 | 0.584 | 0.175 | 0.175 | 0.16 | 0.177 | 0.615 | 0.58 | 0.451 | 0.361 | 0.549 | 0.517 | 0.502 | 0.553 | 0.511 | 0.179 | 0.59
NCI-H838 | 0.933 | 0.91 | 0.958 | 0.971 | 1.03 | 0.313 | 0.332 | 0.392 | 0.311 | 0.212 | 0.221 | 0.232 | 0.23 | 0.208 | 0.223 | 0.185 | 0.242 | 0.206 | 0.349 | 0.243
A-427 | 0.742 | 0.785 | – | 0.725 | 0.757 | 0.882 | 0.729 | 0.977 | 0.949 | 0.533 | 0.497 | 0.462 | 0.444 | 0.57 | 0.485 | – | 0.57 | 0.554 | 0.881 | 0.525
NCI-H1792 | 0.654 | 0.577 | – | 0.512 | 0.713 | 0.406 | 0.52 | 0.536 | 0.399 | 0.661 | 0.7 | 0.395 | 0.56 | 0.659 | 0.606 | – | 0.581 | 0.596 | – | 0.596
LCLC-97TM1 | 0.187 | 0.208 | – | 0.342 | 0.183 | 0.74 | 0.679 | 0.619 | 0.724 | 0.228 | 0.224 | 0.134 | 0.16 | 0.234 | 0.256 | – | 0.214 | 0.249 | – | 0.22
